{"source": "patent US8742117B2", "about": "“Oxime derivatives” (Cadila Healthcare Limited, priority 2008, dated 2014)", "key": {"human GPR 119 receptor": {"target": "T1, human GPR 119 receptor (Homo sapiens, UniProt Q8TDV5)", "T1 construct": "expressed in transfected cells", "T1 sequence (Q8TDV5 1-335)": "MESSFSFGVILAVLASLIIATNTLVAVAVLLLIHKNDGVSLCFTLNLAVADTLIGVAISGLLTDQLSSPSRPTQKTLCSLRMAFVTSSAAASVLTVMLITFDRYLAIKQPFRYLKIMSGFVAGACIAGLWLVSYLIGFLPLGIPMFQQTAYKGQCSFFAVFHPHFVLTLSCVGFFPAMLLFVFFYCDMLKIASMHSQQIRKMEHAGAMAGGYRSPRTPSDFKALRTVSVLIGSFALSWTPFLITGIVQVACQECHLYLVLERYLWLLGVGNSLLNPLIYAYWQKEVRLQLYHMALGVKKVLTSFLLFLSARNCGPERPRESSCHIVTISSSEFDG", "experiment": "cAMP assay in stable cell line expressing recombinant human GPR 119 receptor", "type": "cell-based", "settings": "intracellular cAMP, recombinant human GPR 119 cell line", "source_text": "A stable cell line expressing recombinant human GPR 119 receptor was established and used to investigate the efficacy of the compounds of the invention based on the intracellular levels of cyclic AMP (cAMP) using commercially available cAMP kits. Compounds of the invention produced a concentration dependent increase in cAMP level and EC50 values of representative compounds were provided in table 1 and table 2 respectively."}, "Sprague Dawley rats": {"test_system": "Sprague Dawley rats", "experiment": "Feed intake in Sprague Dawley rats", "type": "in vivo, rat", "settings": "25 mg/kg i.p., cumulative feed intake vs vehicle control", "source_text": "In Vivo Efficacy Studies: Feed Intake in Sprague Dawley Rats:\nSprague Dawley rats of 6-8 week age were be used for this experiment they were be kept for acclimatization in reversed light/dark cycle for 15 days. Animals will have free access to a standard chow diet and water during acclimatization period. After 15 days reversed light/dark cycle acclimatization animals were trained for fasting induced feed intake for 5 days till they show consistent feed intake. Grouping was done based on the monitored feed intake the training days. On treatment day each group of animals were dosed with test compound or vehicle by appropriate routes of administration (orally or intraperitoneally). Exactly 30 min. after treatment, measured amount of standard chow diet was provided and recorded as 0-min feed offered. Then subsequently 2, 4, 6 and 24 hour after 0-min, feed intake was measured and the cumulative feed intakes were calculated. The change in cumulative feed intake as compare to vehicle treated control at each time point was calculated for test compound and results were provided in table 2"}, "C57/BL6 mice": {"test_system": "C57/BL6 mice", "experiment": "Oral glucose tolerance test (OGTT) in C57/BL6 mice", "type": "in vivo, mouse", "settings": "30 mg/kg oral single dose; glucose load 3 gm/kg; serum glucose AUC", "experimental": "Oral Glucose Tolerance Tests (OGTT) in C57/BL6 Mice:\nC57/BL6 mice of 6-8 week age were used for this experiment. Animals were grouped based on non-fasting serum glucose levels and kept on fasting for overnight (day before OGTT). On the experiment day, each animal received a single dose of vehicle/test compounds (30 mg/kg) were administered orally, 30 min post dosing animals were bled for basal glucose level estimation and at same time glucose load (3 gm/kg) will be administered per orally. Blood was collected at time points corresponding to 20, 40, 60 and 120 min after glucose load administration. Serum was separated for determination of glucose levels and change in area under curve for glucose was calculated and provided in table 3 as % reduction in AUC."}}, "note": "pEC50: −log10 of the molar value."}
{"molecule": "CC(=NOc1ncnc(N2CCC(c3nc(C(C)C)no3)CC2)c1C)c1ccc(S(C)(=O)=O)cc1F", "note": "[Example 6, 1-(2-fluoro-4-(methylsulfonyl)phenyl)ethanone O-6-(4-(3-isopropyl-1,2,4-oxadiazol-5-yl)piperidin-1-yl)-5-methylpyrimidin-4-yl oxime]", "values": [{"measurement": "% activity at 1 μM", "setting": "human GPR 119 receptor", "value": 49.55, "unit": "%"}, {"measurement": "% reduction in food in take 2 hour", "setting": "Sprague Dawley rats", "value": 57, "unit": "%"}, {"measurement": "% reduction in food in take 4 hour", "setting": "Sprague Dawley rats", "value": 52, "unit": "%"}, {"measurement": "% reduction in food in take 6 hour", "setting": "Sprague Dawley rats", "value": 33.3, "unit": "%"}, {"measurement": "% reduction in food in take 24 hour", "setting": "Sprague Dawley rats", "value": 15.1, "unit": "%"}, {"measurement": "% reduction in AUC at 30 mg/kg", "setting": "C57/BL6 mice", "value": 20, "unit": "%"}]}
{"molecule": "CC(=NOc1ncnc(N2CCC(c3nc(C(C)C)no3)CC2)c1C)c1ccc(OC(F)(F)F)cc1", "note": "[Example 16, 1-(4-(trifluoromethoxy)phenyl)ethanone O-6-(4-(3-isopropyl-1,2,4-oxadiazol-5-yl)piperidin-1-yl)-5-methylpyrimidin-4-yl oxime]", "values": [{"measurement": "% activity at 1 μM", "setting": "human GPR 119 receptor", "value": 78.54, "unit": "%"}, {"measurement": "% reduction in food in take 2 hour", "setting": "Sprague Dawley rats", "value": 43, "unit": "%"}, {"measurement": "% reduction in food in take 4 hour", "setting": "Sprague Dawley rats", "value": 25, "unit": "%"}, {"measurement": "% reduction in food in take 6 hour", "setting": "Sprague Dawley rats", "value": 16, "unit": "%"}, {"measurement": "% reduction in food in take 24 hour", "setting": "Sprague Dawley rats", "value": 4.5, "unit": "%"}]}
{"molecule": "CC(=NOc1ncnc(N2CCC(c3nc(C(C)C)no3)CC2)c1[N+](=O)[O-])c1ccc2c(c1)OCO2", "note": "[Example 4, 1-(benzo[d][1,3]dioxol-5-yl)ethanone O-6-(4-(3-isopropyl-1,2,4-oxadiazol-5-yl)piperidin-1-yl)-5-nitropyrimidin-4-yl oxime]", "values": [{"measurement": "% activity at 1 μM", "setting": "human GPR 119 receptor", "value": 47.28, "unit": "%"}, {"measurement": "% reduction in food in take 2 hour", "setting": "Sprague Dawley rats", "value": 45.3, "unit": "%"}, {"measurement": "% reduction in food in take 4 hour", "setting": "Sprague Dawley rats", "value": 29, "unit": "%"}, {"measurement": "% reduction in food in take 6 hour", "setting": "Sprague Dawley rats", "value": 14.1, "unit": "%"}, {"measurement": "% reduction in food in take 24 hour", "setting": "Sprague Dawley rats", "value": 0, "unit": "%"}]}
{"molecule": "CC(=NOc1ncnc(N2CCC(c3nc(C(C)C)no3)CC2)c1[N+](=O)[O-])c1ccc(F)cc1", "note": "[Example 9, 1-(4-fluorophenyl)ethanone O-6-(4-(3-isopropyl-1,2,4-oxadiazol-5-yl)piperidin-1-yl)-5-nitropyrimidin-4-yl oxime]", "values": [{"measurement": "% activity at 1 μM", "setting": "human GPR 119 receptor", "value": 104.77, "unit": "%"}, {"measurement": "pEC50", "setting": "human GPR 119 receptor", "value": 6.13}, {"measurement": "% reduction in food in take 2 hour", "setting": "Sprague Dawley rats", "value": 41, "unit": "%"}, {"measurement": "% reduction in food in take 4 hour", "setting": "Sprague Dawley rats", "value": 31, "unit": "%"}, {"measurement": "% reduction in food in take 6 hour", "setting": "Sprague Dawley rats", "value": 23, "unit": "%"}, {"measurement": "% reduction in food in take 24 hour", "setting": "Sprague Dawley rats", "value": 12, "unit": "%"}]}
{"molecule": "CC(=NOc1ncnc(N2CCC(c3nc(C(C)C)no3)CC2)c1[N+](=O)[O-])c1cccnc1", "note": "[Example 10, 1-(pyridin-3-yl)ethanone O-6-(4-(3-isopropyl-1,2,4-oxadiazol-5-yl)piperidin-1-yl)-5-nitropyrimidin-4-yl oxime]", "values": [{"measurement": "% activity at 1 μM", "setting": "human GPR 119 receptor", "value": 31.37, "unit": "%"}, {"measurement": "% reduction in food in take 2 hour", "setting": "Sprague Dawley rats", "value": 38, "unit": "%"}, {"measurement": "% reduction in food in take 4 hour", "setting": "Sprague Dawley rats", "value": 31, "unit": "%"}, {"measurement": "% reduction in food in take 6 hour", "setting": "Sprague Dawley rats", "value": 25.4, "unit": "%"}, {"measurement": "% reduction in food in take 24 hour", "setting": "Sprague Dawley rats", "value": 10, "unit": "%"}]}
{"molecule": "CC(=NOc1ncnc(N2CCC(c3nc(C(C)C)no3)CC2)c1[N+](=O)[O-])c1ccc(S(C)(=O)=O)cc1F", "note": "[Example 14, 1-(2-fluoro-4-(methylsulfonyl)phenyl)ethanone O-6-(4-(3-isopropyl-1,2,4-oxadiazol-5-yl)piperidin-1-yl)-5-nitropyrimidin-4-yl oxime]", "values": [{"measurement": "% activity at 1 μM", "setting": "human GPR 119 receptor", "value": 89.97, "unit": "%"}, {"measurement": "% reduction in food in take 2 hour", "setting": "Sprague Dawley rats", "value": 53, "unit": "%"}, {"measurement": "% reduction in food in take 4 hour", "setting": "Sprague Dawley rats", "value": 48, "unit": "%"}, {"measurement": "% reduction in food in take 6 hour", "setting": "Sprague Dawley rats", "value": 37, "unit": "%"}, {"measurement": "% reduction in food in take 24 hour", "setting": "Sprague Dawley rats", "value": 16, "unit": "%"}, {"measurement": "% reduction in AUC at 30 mg/kg", "setting": "C57/BL6 mice", "value": 20, "unit": "%"}]}
{"molecule": "CC(=NOc1ncnc(N2CCC(c3nc(C(C)C)no3)CC2)c1C)c1ccc(C(F)(F)F)cc1", "note": "[Example 15, 1-(4-(trifluoromethyl)phenyl)ethanone O-6-(4-(3-isopropyl-1,2,4-oxadiazol-5-yl)piperidin-1-yl)-5-methylpyrimidin-4-yl oxime]", "values": [{"measurement": "% activity at 1 μM", "setting": "human GPR 119 receptor", "value": 79.21, "unit": "%"}, {"measurement": "% reduction in food in take 2 hour", "setting": "Sprague Dawley rats", "value": 41, "unit": "%"}, {"measurement": "% reduction in food in take 4 hour", "setting": "Sprague Dawley rats", "value": 27, "unit": "%"}, {"measurement": "% reduction in food in take 6 hour", "setting": "Sprague Dawley rats", "value": 24, "unit": "%"}, {"measurement": "% reduction in food in take 24 hour", "setting": "Sprague Dawley rats", "value": 11, "unit": "%"}, {"measurement": "% reduction in AUC at 30 mg/kg", "setting": "C57/BL6 mice", "value": 23.4, "unit": "%"}]}
{"molecule": "CC(=NOc1ncnc(N2CCC(c3nc(C(C)C)no3)CC2)c1C)c1ccc(F)cc1", "note": "[Example 8, 1-(4-fluorophenyl)ethanone O-6-(4-(3-isopropyl-1,2,4-oxadiazol-5-yl)piperidin-1-yl)-5-methylpyrimidin-4-yl oxime]", "values": [{"measurement": "% activity at 1 μM", "setting": "human GPR 119 receptor", "value": 64.11, "unit": "%"}, {"measurement": "% reduction in food in take 2 hour", "setting": "Sprague Dawley rats", "value": 32, "unit": "%"}, {"measurement": "% reduction in food in take 4 hour", "setting": "Sprague Dawley rats", "value": 17, "unit": "%"}, {"measurement": "% reduction in food in take 6 hour", "setting": "Sprague Dawley rats", "value": 12, "unit": "%"}, {"measurement": "% reduction in food in take 24 hour", "setting": "Sprague Dawley rats", "value": 4, "unit": "%"}]}
